Experimental findings from patent publication US5506264A, “Zinc tranexamate compounds” (Zaidan Hojin Seisan Kaihatsu Kaguki Kenkyusho, priority 1992, dated 1996) are described below.

Structures can show the parent of a compound that is named as a salt.

In data set [1] the test system is Stomach injury with hydrochloric acid/ethanol. Briefly: Anti-ulcer test (1): stomach injury with hydrochloric acid/ethanol. To be noted: for Suppression % / Ulcer coefficient (mm) mean ± S.E.: 50 mg/kg oral, 1 hour before hydrochloric acid/ethanol, 8 animals, * p<0.05; for Ulcer coefficient (mm) mean ± S.E.: non-treated 78.4 ± 21.1. Type of data set: in vivo, Male rats of Sprague-Dawley strain. As to the method:
Male rats of Sprague-Dawley strain (supplied by Charles-River Co., SPE) weighing 220 to 280 g were fasted for 24 hours and employed in the experiment, whereby the rats were allowed free access to water for the first 22 hours, with no water being given for the remaining 2 hours. The test compound was suspended in 0.5% aqueous carboxymethylcellulose solution and the suspension was given to the test animals at a dose of 1 ml/200 g body weight, with the solvent alone being applied as a control at the same dose. Rats were treated by oral administration of hydrochloric acid/ethanol (containing 0.15 mole hydrochloric acid solution in 80% ethanol) at a dose of 1 ml/200 g body weight and sacrificed with ether 1 hour later, and the stomachs and duodena were isolated, followed by removal of the contents from the duodena. After the cardiac orifices were ligated, 2% formalin solution was injected in 8 ml portion into the stomachs through the duodenum, and the pyloric sphincters were ligated, followed by immersion into the same solution for 10 min to perform slight fixation (hereinafter referred to as "formalin treatment"). The stomachs were incised along the greater curvature, and individual injuries (erosions) generated in the glandular portion of each stomach were measured in length (mm) under microscope for anatomy (10 fold magnification), with the total sum per rat of measured injury lengths being calculated. The test compound was given to the animals orally 1 hour before administration of hydrochloric acid/ethanol.

The subject of data set [2] is Stomach injury through water-immersion constraint stress. Briefly: Anti-ulcer test (2): stomach injury through water-immersion constraint stress. The note with it: 50 mg/kg oral, immediately before stress-loading (23° C., 8 hours), 8 animals, * p<0.05; for Ulcer coefficient (mm) mean ± S.E.: non-treated 52.8 ± 9.8. The class given is in vivo, Male rats of Sprague-Dawley strain. Here is the method: Male rats of Sprague-Dawley strain (supplied by Charles-River Co., SPE) weighing 220 to 280 g were fasted for 24 hours and employed in the experiment, whereby the rats were allowed free access to water for the first 22 hours, with no water being given for the remaining 2 hours. The test compound was suspended in 0.5% aqueous carboxymethylcellulose solution and the suspension was given to the test animals at a dose of 1 ml/200 g body weight, with the solvent alone being applied as a control at the same dose. The rats were stress-loaded by soaking the animals placed in a stress cage of Univ. of Tokyo type up to the xiphoid in a water tank at 23° C. and they were taken out of the tank 8 hours later and sacrificed with ether. The stomachs were isolated and treated with formalin, and individual injuries formed in the glandular portion of the stomach were measured in length (mm), with the total sum per rat of the measured injury lengths being calculated. The test compound was given to the test animals orally immediately before the stress-loading.

A further data set is described as follows: Solubility in water. The class given is physicochemical.
For another data set, the system named is mice. Briefly: Acute toxicity test, oral. The note with it: 3 day observation. An excerpt:
Male ddy strain mice (weighing 23 to 26 g) used in the experiment were divided into groups each consisting of 3 heads and treated by oral administration of the test compound suspended with powdered gum arabic, followed by observation for any abnormalities over a 3 day period to find the number of dead animals.

For `NC[C@H]1CC[C@H](C(=O)Oc2ccc(CCC(=O)O)cc2)CC1` [Cetraxate hydrochloride], in data set [1], the Suppression % is 40.9% and the “Ulcer coefficient (mm) mean ± S.E.” value came to 46.3 ± 7.6 mm. Further, in data set [2], the Suppression % is reported as 39.4% and the “Ulcer coefficient (mm) mean ± S.E.” value is given as 32.0 ± 8.4 mm.

Turning to “L-malic acid salt of zinc tranexamate monohydrate”, the “amount of compound dissolving in 2 ml of water” value in “Solubility in water” was found to be 1 g.

For zinc tranexamate monohydrate, the values for the Suppression % in data set [1] and in data set [2] were 81.1% and 57.8%, respectively. For the same compound, the “Ulcer coefficient (mm) mean ± S.E.” value in data set [1] turned out to be 14.8 ± 4.5 mm; in data set [2], 22.3 ± 8.4 mm. The “suppressory activity in the anti-ulcer test, compared with control, tranexamic acid and cetraxate hydrochloride” value in data set [1] (summary in words of the anti-ulcer tests (Tables 1 and 2)) is “improved suppressory activity as compared with the control, or tranexamic acid and cetraxate hydrochloride”. In addition, the “Nd/No (No. of dead animals / total No. of experimental animals)” value in the data set with mice (600 mg/kg oral) and in the data set on mice (1,200 mg/kg oral) was 0/3 throughout. Moreover, the mortality result with mice (oral doses up to 1,200 mg/kg) was “did not cause any animal to die”.

`NC[C@H]1CC[C@H](C(=O)O)CC1` [Tranexamic acid, tranexamic acid]: in data set [1], the Suppression % is 10.1% and the “Ulcer coefficient (mm) mean ± S.E.” value is 70.5 ± 20.1 mm. The “effects in the anti-ulcer tests” value in data set [1] (conclusion in words from the test results) was “did not produce any marked effects”. Also, in data set [2], the Suppression % is reported as 11.9% and the “Ulcer coefficient (mm) mean ± S.E.” value stood at 46.5 ± 8.4 mm.
